Assays:
[1] = test system: STAT3; experiment: Western blot, p-STAT3 and STAT3 in EAC cells; format: cell-based; details: SK-GT-4 1.5 µM and FLO-1 0.8 µM, 72 h
Protocol: (§1) A total of 500,000 FLO-1 and SK-GT-4 cells were seeded in 10 cm^2 dishes. After 24 h, cells were incubated with a vehicle, niclosamide analog 3a (IC50 concentration), and niclosamide (equivalent dose of 3a IC50 concentration). Then, 72 h post-treatment with the compounds, the media were removed to eliminate the dead/floating cells and washed with PBS. The cells were then scraped using a cell scraper in the lysis buffer containing a protease/phosphatase inhibitor cocktail (Thermo Scientific# A32959, Rockford, IL, USA). Further cells were lysed and sonicated using a probe sonicator (Fisher Scientific Model no FB120). The resulting lysates were centrifuged at 6500 rpm and 4 °C for 10 min. […] (Thermo Scientific, Rockford, IL, USA) method was used to estimate total protein levels in the prepared cell lysates, which were diluted with lysis buffer mixed with 2× Laemmli buffer (Biorad#1610737, Hercules, CA, USA) and boiled for 5 min at […]. Equal volumes of protein (50 μg) were used on the SDS-PAGE for separation using gel electrophoresis. […]

[2] = test system: SK-GT-4 and FLO-1 EAC cells; experiment: Colony formation assay; format: cell-based; details: 1.5 µM (SK-GT-4) and 0.8 µM (FLO-1); both EAC cell lines
Protocol: In total, 500 SK-GT-4 and FLO-1 cells were seeded in each well of 6-well plates before 24 h treatment of niclosamide analog 3a IC50 concentration and an equivalent dose of niclosamide. The media was changed after 72 h with drug-free media to remove drug exposure and allow them to grow and form colonies for 10–12 days. At the end of the experiment, the colonies were washed using PBS three times, fixed with 10% formalin solution (Fisher Scientific#23-305510, Pittsburgh, PA, USA), and stained using a 1% crystal violet (Sigma-Aldrich#C6158, St. Louis, MO, USA) solution in 10% ethanol for 15 min. The colonies were then washed with water, dried at room temperature, counted, and imaged. The number of colonies in the treated cells was compared with untreated cells.

[3] = test system: SK-GT-4 EAC cells; experiment: MTT proliferation assay, SK-GT-4 cells; format: cell-based; details: SKGT4, 72 h, read-out: Antiproliferative activity IC50, SK-GT-4
Protocol: (§2) The FLO-1, SK-GT-4, and THP-1 cell lines were a gift from Dr. Shrikant Anant’s laboratory. Cells were grown in 10% fetal bovine serum (Fisher Scientific#FB12999102, Pittsburgh, PA, USA) and 1% antibiotic/antimycotic agent (Corning, Tewksbury, MA, USA) in RPMI 1640 media mixed with […] HEPES, L-glutamine (Corning, MA, USA). The cell lines were grown in a 5% CO2 incubator at 37 °C and used below 15 passages for the experiments.
(§3) The proliferation assay used a 3-(4,5-dimethylthiazol-2-yl)-2,5-diphenyltetrazolium bromide (MTT) assay. Briefly, 5000 FLO-1 and SK-GT-4 cells were counted and seeded in each well in 96-well plates. Post 24 h of incubation, EAC cells were treated with multiple concentrations (0–10 μM) of niclosamide (Cayman chemical#10649, Ann Arbor, MI, USA) and its analogs. At respective time points, 10 μL of stock MTT reagent (Millipore Sigma, Bedford, MA, USA) (3 mg/mL) was added to each well and incubated for 1–2 h under the dark at 37 °C. After incubation, the purple formazan crystals were dissolved in equal volumes of DMSO, and the absorbance of the resulting clear solutions was recorded at 570 nm using a microplate reader. A CCK-8 (Abcam, Cat no. ab228554, Burlingame, CA, USA) assay was used for the THP-1 cells. Briefly, 5000 cells were plated in every well of a 96-well plate. After 24 h of plating, THP-1 cells were treated with niclosamide and compound 3a. After the respective time point, an equal amount of CCK-8 reagent was pipetted to the wells and incubated for one hour in an incubator, and finally, the absorbance was recorded at 450 nm. The percent change in the proliferation was calculated by comparing the cell viability of the treated groups to the untreated control cells.

[4] = test system: β-catenin; experiment: Western blot, active non-phospho-β-catenin in EAC cells; format: cell-based; details: SK-GT-4 1.5 µM and FLO-1 0.8 µM, 72 h
Protocol: as §1

[5] = test system: FLO-1 EAC cells; experiment: MTT proliferation assay, FLO-1 cells; format: cell-based; details: FLO-1, 72 h, read-out: Antiproliferative activity IC50, FLO-1
Protocol: as §2, §3

[6] = test system: M. mycetomatis SO1 isolate; design: method as in PMID 34209118; details: read-out: IC50 against the Somalian SO1 isolate; cited from earlier work
[7] = test system: M. mycetomatis MM55 strain; experiment: In vitro susceptibility testing (MTS), MM55 strain; format: cell-based, Madurella mycetomatis; details: Madurella mycetomatis, MM55STRAIN
Protocol: The antifungal activity of the compounds was tested against a geographically and genetically diverse set of M. mycetomatis isolates. These included the MM55 strain from Sudan, strains I1, I3, and […] from India, strain P1 from Mali, strain SO1 from Somalia, strain Peru72012 from Peru, and strain CBS247.48 whose country of origin was unknown. All isolates were originally obtained from patients and identified and maintained in the Erasmus Medical Centre, Rotterdam, The Netherlands. In vitro susceptibility testing was performed as reported previously. The only difference was that tetrazolium compound 3-(4,5-dimethylthiazol-2-yl)-5-(3-carboxymethoxyphenyl)-2-(4-sulfophenyl)-2H-tetrazolium salt (MTS) was used as a viability dye in endpoint reading instead of 2,3-bis-(2-methoxy-4-nitro-5-sulfophenyl)-2H-tetrazolium-5-carboxanilide salt (XTT).

[8] = test system: SK-GT-4 cells; experiment: Spheroid formation assay; format: cell-based; details: 1.5 µM, SK-GT-4, 7 days
Protocol: In the ultra-low attachment plates (Corning, Lowell, MA, USA), 500 SK-GT-4 cells were seeded in each well with the spheroid media [DMEM medium supplemented with EGF (20 ng/mL), FGF (20 ng/mL), heparin (4 µg/mL), B27 (10 mL in 500 mL of 50×) (Invitrogen, Carlsbad, CA, USA), and antibiotic pen/strep (1%)]. After 24 h, spheroids were treated with 3a (IC50 dose) and an equivalent dose of niclosamide. Spheroids were counted after 7 days, and images were taken.

- IC50 [3]: 1.77 ± 0.77 µM
- IC50 ([7]; read-out: Antifungal activity IC50): 15 ± 1.6 µM
- IC90 ([7]; read-out: Antifungal activity IC90): 23.8 ± 0.1 µM
SMILES: O=C(Nc1ccc([N+](=O)[O-])cc1Cl)c1cc(Cl)ccc1O [Niclosamide]
- Activating phosphorylation of STAT3 at TYR705 (Western blot) [1]: inhibited activating STAT3 phosphorylation but not as strongly as 3a
- Inhibition of colony formation [2]: slightly less efficient than 3a
- Active (non-phosphorylated) β-catenin (Western blot) [4]: suppressed
- IC50 [5]: 1.05 ± 0.28 µM
- IC50 [6]: 2.38 µM
- Inhibition of spheroid formation [8]: inhibit spheroid formation

— article PMC11275179, “Superior Anticancer and Antifungal Activities of New Sulfanyl-Substituted Niclosamide Derivatives” (Biomedicines, 2024)
